Assay results as given in US20130317037A1, “METHOD OF ADMINISTRATION AND TREATMENT” (GlaxoSmithKline Intellectual Property Development Limited, priority 2010, published 2013).
Read-outs that look alike come from different tables or passages of the source.

Columns and labels:
MCF7 = assay: Panel A proliferation assay (CellTiter-Glo); HER2 Loss 1 copy, KRAS WT, PIK3CA p.E545K; assay type: cell-based, human; conditions: for IC50: Homo sapiens
Procedure: (§1) A total of 15 breast cancer cell lines were used in this study. These cells were cultured in RPMI-1640 and supplemented with 5% or 10% fetal bovine serum, 2 mM GlutaMAX™ and 1 mM sodium pyruvate, or in growth medium recommended by the suppliers [American Type Culture Collection, Manassas, Va., USA; Developmental Therapeutics Program, National Cancer Institute, Bethesda, Md., USA; German Collection of Microorganisms and Cell Cultures (DSMZ), Braunschweig, Germany; European Collection of Cell Cultures (ECACC), Porton Down, UK]. Cells of each line were seeded into a 384-well microtiter plate at two cell densities. Low density ranges were 300-1800 cells/well, and a high density was 600 to 3600 cells/well). The plating density was determined by the rate of proliferation of the cell line in the absence of any inhibitor and varied amongst cell lines. High plating densities were double that of low density. Each cell density was plated in triplicate. In total there were 30 wells to be treated with increasing concentrations of Compound B for each cell line at each density. In addition, there were 24 wells of dimethyl sulfoxide (DMSO)-treated controls at each density. After seeding, the cells were incubated at 37° C. in 5% CO2 for 24 hours. Subsequently, Compound B was added to each cell line with 10 concentrations. The dosing solution of Compound B was first prepared in DMSO at a master stock concentration of 10 mM. 1:3 serial dilutions were then made of the stock solution to give a range of working stock concentrations; 10.00 mM, 3.164 mM, 1.001 mM, 316.9 μM, 100.3 μM, 31.74 μM, 10.04 μM, 3.178 μM, 1.006 μM and 318.3 nM. The working stock concentrations of Compound B were then dispensed into the seeded cancer cell lines using a Biomek FX liquid handler to give final treatment concentrations of 0.1% of the stock concentration. A similar volume of DMSO without Compound B was dispensed into the 24 control wells of each seeding density at a concentration of 0.1%. Also, a zero-time plate prepared with a similar cell seeding was read for each cell line at each seeding density immediately after the addition of the DMSO control. After a 72 h incubation, an equal volume of the CellTiter-Glo (CellTiter-Glo Luminescent Cell Viability Assay, Promega, Madison, Wis.) to that of the cell culture medium was added into each well of the plate. After the contents were mixed to induce cell lysis and stabilization, cell luminescence was recorded using a SpectraMax M5^e (Molecular Devices, Sunnyvale, Calif., USA)
(§2) The luminescence of Compound B treated cells was compared relative to the average of the 24 DMSO-treated control wells at each cell density for every concentration of Compound B for all triplicate wells. The percent intensity values were used in model 205 of XLfit in Microsoft Excel to calculate gIC50s for the low and high seeding density (a 4 parameter logistical fit). Specifically, the midpoint of the growth window (the gIC50) falls half way between the number of cells at the time of compound addition (T=0) and the growth of control cells treated with DMSO. The gIC50 value serves as a metric for measuring the inhibition of proliferation in cancer cells. […] Finally, where data quality permits, the Ymin values (defined as the maximum growth inhibition relative to the cell density at Time-zero) were calculated as a measure of cytotoxicity where data were of reasonable quality.

HCC1954 = assay: Panel A proliferation assay (CellTiter-Glo); HER2 Gain ≧5, KRAS WT, PIK3CA p.H1047R; assay type: cell-based, human; conditions: for IC50: Homo sapiens
Procedure: as §1, §2

[1] = tested on: panel of 15 human breast cell lines; assay: Breast Cancer Cell Line Panel A proliferation assay, panel summary; assay type: cell-based
Procedure: as §1, with “The dosing solution of Compound B was first prepared in DMSO at a master stock concentration of 10 mM. 1:3 serial dilutions were then made of the stock solution to give a range of working stock concentrations; 10.00 mM, 3.164 mM, 1.001 mM, 316.9 μM, 100.3 μM, 31.74 μM, 10.04 μM, 3.178 μM, 1.006 μM and 318.3 nM. The working stock concentrations of Compound B were then dispensed into the seeded cancer cell lines using a Biomek FX liquid handler to give final treatment concentrations of 0.1% of the stock concentration. A similar volume of DMSO without Compound B was dispensed into the 24 control wells of each seeding density at a concentration of 0.1%.” left out, “After a 72 h incubation, an equal volume of the CellTiter-Glo (CellTiter-Glo Luminescent Cell Viability Assay, Promega, Madison, Wis.) to that of the cell culture medium was added into each well of the plate.” left out
The luminescence of Compound B treated cells was compared relative to the average of the 24 DMSO-treated control wells at each cell density for every concentration of Compound B for all triplicate wells. […] Finally, where data quality permits, the Ymin values (defined as the maximum growth inhibition relative to the cell density at Time-zero) were calculated as a measure of cytotoxicity where data were of reasonable quality.

Question: `COc1ncc(-c2ccc3nccc(-c4ccnnc4)c3c2)cc1NS(=O)(=O)c1ccc(F)cc1F` [Compound B, 2,4-difluoro-N-{2-(methyloxy)-5-[4-(4-pyridazinyl)-6-quinolinyl]-3-pyridinyl}benzenesulfonamide] was tested. Which IC50 (MCF7; MCF7, high seeding density, 72 h, read-out: High Density gIC50) did it give?
Answer: The IC50 was 1.1 nM.

Question: And the IC50 (MCF7; MCF7, low seeding density, 72 h, read-out: Low Density gIC50)?
Answer: The IC50 was 2.5 nM.

Question: And the IC50 (MCF7; MCF7, mean of low and high density, read-out: Mean gIC50)?
Answer: The IC50 was 1.8 nM.

Question: What about the “High Density Y-Min” value (MCF7; MCF7, high density, % of cells at T = 0) of the same molecule?
Answer: The value was 82.2%.

Question: And the “Low Density Y-Min” value (MCF7; MCF7, low density, % of cells at T = 0)?
Answer: The value was 78.5%.

Question: What about the “High Density Y-Min” value (HCC1954; HCC1954, high density, % of cells at T = 0) of the same molecule?
Answer: The value was 18.3%.

Question: What about the “Low Density Y-Min” value (HCC1954; HCC1954, low density, % of cells at T = 0) of the same molecule?
Answer: Its value is 19.8%.

Question: And the IC50 (HCC1954; HCC1954, high seeding density, 72 h, read-out: High Density gIC50)?
Answer: The IC50 was 3.4 nM.

Question: And the IC50 (HCC1954; HCC1954, low seeding density, 72 h, read-out: Low Density gIC50)?
Answer: The IC50 was 3 nM.

Question: And the IC50 (HCC1954; HCC1954, mean of low and high density, read-out: Mean gIC50)?
Answer: The IC50 was 3.2 nM.

Question: And the IC50 ([1]; 15 human breast cell lines, read-out: overall median gIC50)?
Answer: Its IC50 is 3.2 nM.

Question: And the “tumor cell lines with gIC50>20 nM” value ([1]; number of lines / lines tested)?
Answer: Its value is 3/15.

Question: What about the “tumor cell lines with gIC50s<3 nM” value ([1]; number of lines / lines tested) of the same molecule?
Answer: Its value is 7/15.
